Assay results as given in patent US11440886B2, “Anti-inflammatory compound, and preparation and use thereof” (E-Nitiate Biopharmaceuticals (Hangzhou) Co., Ltd., priority 2018, dated 2022).

Molecular target: human recombinant PDE4B1 enzyme (Homo sapiens (Human), UniProt Q07343)
Experiment: Inhibition of PDE4B1 activity by cAMP HTRF assay
Assay type: biochemical
Details: human recombinant PDE4B1, cAMP 40 nM, pH 7.4
Protocol: Determination of the inhibition of the compounds on PDE4B1 activity by using cAMP HTRF® assay
The inhibitory effect of the compounds on human PDE4B1 enzyme activity was determined by quantifying the 5′-adenosine monophosphate (5′-AMP) formed from 3′,5′-cyclic adenosine monophosphate (cAMP).
The test compound or water (control) and human recombinant PDE4B1 enzyme (4.8 U) were mixed in a buffer solution (pH 7.4) consisting of 1× Hanks' balanced salt solution (HBSS), 5 mM HEPES, 3 mM MgCl2, and 0.1% BSA and incubated for 10 min. A cAMP enzyme substrate (final concentration 40 nM) was added, and the mixture was incubated at room temperature for 60 min. Then a fluorescent acceptor (Dye2 labeled with cAMP), a fluorescent donor (anti-cAMP antibody labeled with europium cryptate) and a non-specific phosphodiesterase inhibitor IBMX (3-isobutyl-1-methyl xanthine; final concentration 1 mM) were added. After 60 min, the fluorescence transfer related to the amount of remaining cAMP was measured on a microplate reader (Rubystar, BMG) at λex=337 nm, λem=620 nm and λem=665 nm. The enzyme activity is calculated from the ratio of the signals measured at 665 nm and 620 nm. The results are expressed as percent inhibition of the enzyme activity of the control (without PDE4 inhibitor). The enzyme was omitted for measurement of the basic control. The IC50 value (IC50=the concentration that caused the half-maximum inhibition of the specific activity of the control) is derived from dose-response measurements with eight different concentrations (n=2; repeated 2 times)

human recombinant PDE4B1 enzyme, sequence (Q07343 whole entry): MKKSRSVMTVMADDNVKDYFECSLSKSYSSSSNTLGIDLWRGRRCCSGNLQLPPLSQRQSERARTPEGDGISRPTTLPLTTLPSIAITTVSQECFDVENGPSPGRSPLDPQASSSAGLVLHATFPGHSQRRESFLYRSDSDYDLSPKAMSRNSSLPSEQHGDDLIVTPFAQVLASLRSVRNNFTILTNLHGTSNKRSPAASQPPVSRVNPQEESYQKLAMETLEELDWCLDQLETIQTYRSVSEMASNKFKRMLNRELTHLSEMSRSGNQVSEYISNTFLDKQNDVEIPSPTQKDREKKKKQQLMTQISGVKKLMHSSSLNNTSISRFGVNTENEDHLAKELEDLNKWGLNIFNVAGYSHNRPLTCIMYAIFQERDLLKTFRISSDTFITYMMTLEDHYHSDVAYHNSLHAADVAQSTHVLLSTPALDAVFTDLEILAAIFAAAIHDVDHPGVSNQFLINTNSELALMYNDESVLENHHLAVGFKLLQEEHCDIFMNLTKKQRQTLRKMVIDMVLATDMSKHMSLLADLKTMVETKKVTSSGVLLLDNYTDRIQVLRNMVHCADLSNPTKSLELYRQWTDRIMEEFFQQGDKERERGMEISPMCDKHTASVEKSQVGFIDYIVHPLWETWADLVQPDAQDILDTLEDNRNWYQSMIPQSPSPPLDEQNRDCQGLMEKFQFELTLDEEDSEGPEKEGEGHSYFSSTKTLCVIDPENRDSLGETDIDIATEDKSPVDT

IC50 | Compound
1250 nM | COc1ccc(C(=O)Cn2c(C)cc(=O)cc2C)cc1OCC[S+](C)[O-] (stereo not drawn) [Example 36, 1-(2-(3-methylsulfoxideethoxy-4-methoxyphenyl)-2-oxoethyl)-2,6-dimethylpyridin-4(1H)-one]
510 nM | COc1ccc(C(=O)Cn2c(C)cc(=O)cc2C)cc1OCCS(C)(=O)=O [Example 37, 1-(2-(3-methylsulfoneethoxy-4-methoxyphenyl)-2-oxoethyl)-2,6-dimethylpyridin-4(1H)-one]
1090 nM | COc1ccc(/C(Cn2c(C)cc(=O)cc2C)=N/O)cc1OCC1CC1 [Example 38-1, (Z)-1-(2-(3-cyclopropylmethoxy-4-methoxyphenyl)-2-(hydroxyimido)ethyl)-2,6-dimethylpyridin-4(1H)-one]
71 nM | COc1ccc(/C(Cn2c(C)cc(=O)cc2C)=N\O)cc1OCC1CC1 [Example 38-2, (E)-1-(2-(3-cyclopropylmethoxy-4-methoxyphenyl)-2-(hydroxyimido)ethyl)-2,6-dimethylpyridin-4(1H)-one]
1070 nM | CO/N=C(\Cn1c(C)cc(=O)cc1C)c1ccc(OC)c(OCC2CC2)c1 [Example 39, (Z)-1-(2-(3-cyclopropylmethoxy-4-methoxyphenyl)-2-(methoxyimido)ethyl)-2,6-dimethylpyridin-4(1H)-one]
6.8 nM | CO/N=C(/Cn1c(C)cc(=O)cc1C)c1ccc(OC)c(OCC2CC2)c1 [Example 40, (E)-1-(2-(3-cyclopropylmethoxy-4-methoxyphenyl)-2-(hydroxymethylimido)ethyl)-2,6-dimethylpyridin-4(1H)-one]
1.22 nM | COc1ccc(/C(Cn2c(C)cc(=O)cc2C)=N/OCSC)cc1OCC1CC1 [Example 41, (Z)-1-(2-(3-cyclopropylmethoxy-4-methoxyphenyl)-2-(methylthiomethoxyimido)ethyl)-2,6-dimethylpyridin-4(1H)-one]
8.2 nM | COc1ccc(/C(Cn2c(C)cc(=O)cc2C)=N\OCSC)cc1OCC1CC1 [Example 42, (E)-1-(2-(3-cyclopropylmethoxy-4-methoxyphenyl)-2-(methylthiomethoxyimido)ethyl)-2,6-dimethylpyridin-4(1H)-one]
4.9 nM | COc1ccc(/C(Cn2c(C)cc(=O)cc2C)=N/OC[S+](C)[O-])cc1OCC1CC1 (stereo not drawn) [Example 43, (Z)-1-(2-(3-cyclopropylmethoxy-4-methoxyphenyl)-2-(methylsulfoxidemethoxyimido)ethyl)-2,6-dimethylpyridin-4(1H)-one]
30 nM | COc1ccc(/C(Cn2c(C)cc(=O)cc2C)=N/OCS(C)(=O)=O)cc1OCC1CC1 [Example 44, (Z)-1-(2-(3-cyclopropylmethoxy-4-methoxyphenyl)-2-(methylsulfonemethoxyimido)ethyl)-2,6-dimethylpyridin-4(1H)-one]
170 nM | COc1ccc(C(=O)Cn2ccc(=O)cc2)cc1OCC1CC1 [Example 45, 1-(2-(3-cyclopropylmethoxy-4-methoxyphenyl)-2-oxoethyl)pyridin-4(1H)-one]
25 nM | COc1ccc(C(=O)Cn2ccc(=O)cc2C)cc1OCC1CC1 [Example 46, 1-(2-(3-cyclopropylmethoxy-4-methoxyphenyl)-2-oxoethyl)-2-methylpyridin-4(1H)-one]
7.1 nM | COc1ccc(C(=O)Cn2ccc(=O)cc2Cl)cc1OCC1CC1 [Example 47, 1-(2-(3-cyclopropylmethoxy-4-methoxyphenyl)-2-oxoethyl)-2-chloropyridin-4(1H)-one]
420 nM | COc1ccc(C2CC2n2c(C)cc(=O)cc2C)cc1OCC1CC1 (stereo not drawn) [Example 48, 1-(2-(3-cyclopropylmethoxy-4-methoxyphenyl)cyclopropyl)-2,6-dimethylpyridin-4(1H)-one]
2.9 nM | Cc1cc(=O)cc(C)n1CC(=O)c1ccc(OC(F)F)c(OCC2CC2)c1 [Example 49, 1-(2-(3-cyclopropylmethoxy-4-difluoromethoxyphenyl)-2-oxoethyl)-2,6-dimethylpyridin-4(1H)-one]
180 nM | COc1ccc(/C=C/n2ccc(=O)cc2)cc1OCC1CC1 [Example 50, (E)-1-(3-cyclopropylmethoxy-4-methoxystyryl)pyridin-4(1H)-one]
57 nM | COc1ccc(/C=C/n2ccc(=O)cc2C)cc1OCC1CC1 [Example 51, (E)-1-(3-cyclopropylmethoxy-4-methoxystyryl)-2-methylpyridin-4(1H)-one]
15 nM | CCCOc1cc(/C=C/n2c(C)cc(=O)cc2C)ccc1OC [Example 53, (E)-1-(3-propoxy-4-methoxystyryl)-2,6-dimethylpyridin-4(1H)-one]
26 nM | COc1ccc(/C=C/n2c(C)cc(=O)cc2C)cc1OC(C)C [Example 54, (E)-1-(3-isopropoxy-4-methoxystyryl)-2,6-dimethylpyridin-4(1H)-one]

IC50 | Compound
100 nM | COc1ccc(/C=C/n2c(C)cc(=O)cc2C)cc1OCC(C)(C)C [Example 57, (E)-1-((3-neopentyloxy-4-methoxy)-styryl)-2,6-dimethylpyridin-4(1H)-one]
5.5 nM | COc1ccc(/C=C/n2c(C)cc(=O)cc2C)cc1OC1CC1 [Example 58, (E)-1-(3-cyclopropyloxy-4-methoxystyryl)-2,6-dimethylpyridin-4(1H)-one]
5.1 nM | COc1ccc(/C=C/n2c(C)cc(=O)cc2C)cc1OCC1CC1 [Example 59, (E)-1-(3-cyclopropylmethoxy-4-methoxystyryl)-2,6-dimethylpyridin-4(1H)-one]
1200 nM | COc1ccc(CCn2c(C)cc(=O)cc2C)cc1OCC1CC1 [Example 60, (E)-1-(3-cyclopropylmethoxy-4-methoxyphenethyl)-2,6-dimethylpyridin-4(1H)-one]
6.2 nM | COc1ccc(/C=C/n2c(C)cc(=O)cc2C)cc1OC1CCC1 [Example 61, (E)-1-(3-cyclobutyloxy-4-methoxy-styryl)-2,6-dimethylpyridin-4(1H)-one]
10.2 nM | COc1ccc(/C=C/n2c(C)cc(=O)cc2C)cc1OC1CCCC1 [Example 62, (E)-1-((3-cyclopentyloxy-4-methoxy)-styryl)-2,6-dimethylpyridin-4(1H)-one]
11.1 nM | COc1ccc(/C=C/n2c(C)cc(=O)cc2C)cc1OC1CC=CC1 [Example 63, (E)-1-(3-(cyclopent-3-en-1-yloxy)-4-methoxystyryl)-2,6-dimethylpyridin-4(1H)-one]
43 nM | C=CCOc1cc(/C=C/n2c(C)cc(=O)cc2C)ccc1OC [Example 64, (E)-1-(3-allyloxy-4-methoxy-styryl)-2,6-dimethylpyridin-4(1H)-one]
520 nM | COc1ccc(/C=C/n2c(C)cc(=O)cc2C)cc1OCC=C(C)C [Example 65, (E)-1-((3-(3-methylbut-2-en-1-yl)oxy-4-methoxy)-styryl)-2,6-dimethylpyridin-4(1H)-one]
270 nM | C#CCOc1cc(/C=C/n2c(C)cc(=O)cc2C)ccc1OC [Example 66]
170 nM | CC#CCOc1cc(/C=C/n2c(C)cc(=O)cc2C)ccc1OC [Example 67, (E)-1-(3-(but-2-yn-1-yloxy)-4-methoxystyryl)-2,6-dimethylpyridin-4(1H)-one]
27 nM | COc1ccc(/C=C/n2c(C)cc(=O)cc2C)cc1OC1COC1 [Example 68, (E)-1-((3-(oxacyclobutan-3-yl-oxy)-4-methoxy)-styryl)-2,6-dimethylpyridin-4(1H)-one]
5200 nM | COc1ccc(/C=C/n2c(C)cc(=O)cc2C)cc1OC1CSC1 [Example 69, (E)-1-((3-(thiacyclobutan-3-yl-oxy)-4-methoxy)-styryl)-2,6-dimethylpyridin-4(1H)-one]
8.1 nM | COc1ccc(/C=C/n2c(C)cc(=O)cc2C)cc1OC1CCCO1 (stereo not drawn) [Example 70, (E)-1-((3-(tetrahydrofuran-2-yl)oxy-4-methoxy)-styryl)-2,6-dimethylpyridin-4(1H)-one]
1420 nM | CNC(=O)COc1cc(/C=C/n2c(C)cc(=O)cc2C)ccc1OC [Example 71, (E)-2-(5-(2-(2,6-dimethyl-4-carbonylpyridin-1(4H)-yl)ethenyl)-2methoxyphenoxy)-N-methylacetamide]
3900 nM | COc1ccc(/C=C/n2c(C)cc(=O)cc2C)cc1OC(=O)C1CC1 [Example 72, (E)-1-((3-cyclopropylformyloxy-4-methoxy)-styryl)-2,6-dimethylpyridin-4(1H)-one]
38 nM | COc1ccc(/C=C/n2c(C)cc(=O)cc2C)cc1OCSC [Example 74, (E)-1-(3-methylthiomethoxy-4-methoxystyryl)-2,6-dimethylpyridin-4(1H)-one]
290 nM | COc1ccc(/C=C/n2c(C)cc(=O)cc2C)cc1OC[S+](C)[O-] (stereo not drawn) [Example 75, (E)-1-(3-methylsulfoxidemethoxy-4-methoxystyryl)-2,6-dimethylpyridin-4(1H)-one]

Compound | IC50
CCCCOc1cc(/C=C/n2c(C)cc(=O)cc2C)ccc1OC [Example 55, (E)-1-((3-n-butoxy-4-methoxy)-styryl)-2,6-dimethylpyridin-4(1H)-one] | 54 nM
COc1ccc(/C=C/n2c(C)cc(=O)cc2C)cc1OCC(C)C [Example 56, (E)-1-(3-iso-butoxy-4-methoxystyryl)-2,6-dimethylpyridin-4(1H)-one] | 16 nM
